Data published in PubChem BioAssay (NCI).
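1) Cells in 96-well plates. 2) Compound, 48 h, 5 concentrations. 3) Linear interpolation between surrounding doses. 4) Unreached endpoint = highest concentration. GI50 marks 50% less growth. At the TGI there is no net growth.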

Tests used:
Experiment in all cases: NCI-60 cell line screen, 48 h
[1] = test system: 786-0 renal
[2] = test system: CAKI-1 renal
[3] = test system: HL-60(TB) leukemia
[4] = test system: LOX IMVI melanoma
[5] = test system: OVCAR-8 ovarian
[6] = test system: SF-268 CNS
[7] = test system: SF-539 CNS
[8] = test system: SK-MEL-28 melanoma
[9] = test system: U251 CNS
[10] = test system: BT-549 breast

| SMILES | TGI [1] [µM] | TGI [2] [µM] | TGI [3] [µM] | TGI [4] [µM] | TGI [5] [µM] | TGI [6] [µM] | TGI [7] [µM] | TGI [8] [µM] | TGI [9] [µM] | TGI [10] [µM] | GI50 [1] [µM] | GI50 [6] [µM] | GI50 [3] [µM] | GI50 [4] [µM] | GI50 [5] [µM] | GI50 [7] [µM] | GI50 [8] [µM] | GI50 [9] [µM] | GI50 [10] [µM] | GI50 [2] [µM] |
| --- | --- | --- | --- | --- | --- | --- | --- | --- | --- | --- | --- | --- | --- | --- | --- | --- | --- | --- | --- | --- |
| CC1=CC(=O)CC2(C)CC[C@@H]3C[C@]12OC3(C)C (stereo partly drawn) | > 100 | > 100 | > 100 | > 100 | > 100 | > 100 | > 100 | > 100 | > 100 |  |  |  |  |  |  |  |  |  |  |  |
| CC1/C=C/[C@@]2(C)CCC(C(C)(C)O)C2C(O)C[C@](C)(O)/C=C/C1 (stereo partly drawn) | > 100 | > 100 | > 100 | > 100 | > 100 | > 100 | > 100 | > 100 | > 100 |  |  |  |  |  |  |  |  |  |  |  |
| COc1cc(C2SCCCCCCCCCCSC(c3ccc(O)c(OC)c3)SCCCCCCCCCCS2)ccc1O (stereo not drawn) | > 100 | > 100 |  | > 100 | > 100 | > 100 |  | > 100 | > 100 | > 100 |  |  |  |  |  |  |  |  |  |  |
| CCC1CC2C(=O)N(c3ccccc3)C(=O)C2c2[nH]c3ccccc3c21 (stereo not drawn) | 47.6 |  | 98 | 47.8 | 35.2 | 80 |  | > 100 | > 100 |  |  |  |  |  |  |  |  |  |  |  |
| COC(=O)/C=C(C)/C=C/C1OC(C)OCC1O (stereo not drawn) | > 100 | > 100 | > 100 | > 100 | > 100 | > 100 | > 100 |  | > 100 |  |  |  |  |  |  |  |  |  |  |  |
| C=C(CC(NC(=O)c1ccc(C(CC)Cc2cnc3nc(N)nc(N)c3n2)cc1)C(=O)O)C(=O)O (stereo not drawn) | 5.17 |  | > 100 | > 100 | > 100 | > 100 | > 100 | > 100 | > 100 |  | 0.0257 | 0.0252 |  |  |  |  |  |  |  |  |
| CC(C)(C)c1cc(C(O)(C(F)(F)F)C(F)(F)F)c2c(c1)C(C(F)(F)F)(C(F)(F)F)OC(C)(C(C)(C)C)N2 (stereo not drawn) | 11.6 |  |  |  |  |  |  | 28.6 | 10.9 |  |  |  |  |  |  |  |  |  |  |  |
| O=C(Cc1nc2ccccc2c(=O)n1-c1ccccc1Cl)c1ccncc1 | > 100 | > 100 | > 100 | > 100 | > 100 | > 100 | > 100 | > 100 | > 100 |  |  |  |  |  |  |  |  |  |  |  |
| CC1=Nc2c(ccc3c2C(=O)c2ccccc2C3=O)NC(c2cccc3c2CCC3)C1 (stereo not drawn) | > 100 | > 96.8 | > 100 | > 100 | > 100 | > 100 | > 100 | > 100 | > 100 |  |  |  |  |  |  |  |  |  |  |  |
| COc1ccc(NC(=O)CC2SC(=Nc3ccccc3C)NC2=O)c([N+](=O)[O-])c1 (stereo not drawn) | > 100 |  | > 100 | > 100 | > 100 | > 100 | > 100 | > 100 | > 100 |  |  |  |  |  |  |  |  |  |  |  |
| CCOC(=O)C(=O)Nc1ccccc1C | > 100 | > 100 | > 100 | > 100 | > 100 | > 100 | > 100 | > 100 | > 100 |  |  |  |  |  |  |  |  |  |  |  |
| CCCNC(=O)C1C(=O)C(=O)N(CCC)C1=O (stereo not drawn) | > 100 | > 100 |  | > 100 | > 100 | > 100 | > 100 | > 100 | > 100 |  |  |  |  |  |  |  |  |  |  |  |
| COC12CCC(=O)C=C1c1ccccc1N2C(C)=O (stereo not drawn) | > 100 | > 100 | > 100 |  | > 100 |  | > 100 | > 100 | > 100 |  |  |  |  |  |  |  |  |  |  |  |
| CC[n+]1oc(C(=O)c2ccc(Cl)cc2)c(-c2ccccc2)c1-c1ccccc1.[Cl][Fe]([Cl])([Cl])[Cl] | > 100 |  | > 100 | > 100 | > 100 | > 100 | > 100 | > 100 | > 100 |  | 91.8 | 36.1 | 83.6 | 1.82 | 45.5 | > 100 | 38 | 6.63 |  |  |
| CC(Oc1ccc2c(-c3ccccc3)cc(=O)oc2c1)C(=O)O (stereo not drawn) | > 100 | > 100 | > 100 | > 100 | > 100 | > 100 | > 100 | > 100 | > 100 |  |  |  |  |  |  |  |  |  |  |  |
| Cc1ccccc1NC(=O)c1cc(-c2ccc([N+](=O)[O-])cc2)nc(=S)[nH]1 | > 100 | > 100 | > 100 | > 100 | > 100 | > 100 | > 100 | > 100 | > 100 |  |  |  |  |  |  |  |  |  |  |  |
| COC/C=C\COC | > 100 | > 100 | > 100 | > 100 | > 100 |  |  | > 100 | > 100 |  |  |  |  |  |  |  |  |  |  |  |
| Nc1ccccc1C#C/C=C\C#Cc1ccc(OCCCNC(=O)c2cc3ccccc3[nH]2)cc1 | 25.7 | 72 |  | 28.7 | > 100 | 37.4 | 37.5 | > 100 | 25 | > 100 | 12.6 | 2.37 |  | 2.77 | 42.4 | 18.2 | > 100 | 12.5 | 9.23 | 18.1 |
| Cc1ccc(NC(=O)CCc2nc(N)nc(N)c2-c2ccccc2)cc1C | > 100 | > 100 | > 100 |  | > 100 | > 100 | > 100 | > 100 | > 100 |  |  |  |  |  |  |  |  |  |  |  |
| N#Cc1ccccc1C(Cl)(Cl)c1cnccn1 | 32.3 | > 100 | 70.2 | 61 | 77 | > 100 | > 100 | > 100 | > 100 |  |  |  |  |  |  |  |  |  |  |  |
| N/N=C1\C(=O)N(C2CCCCCC2)C(=O)C1C(=O)NC1CCCCCC1 (stereo not drawn) | > 100 |  | 45.1 |  | > 100 | > 100 | 56.1 | > 10 | 31.7 |  |  |  |  |  |  |  |  |  |  |  |
| COc1ccc(C(c2c(O)c3ccccc3n(-c3ccccc3)c2=O)c2c(O)c3ccccc3n(-c3ccccc3)c2=O)cc1 | > 100 | > 100 |  | > 100 |  | > 100 | > 100 | > 100 | > 100 |  |  |  |  |  |  |  |  |  |  |  |
| COc1ccc(OC)c(NC(=O)CCC/C(CC(=O)c2ccc(O)c(OC)c2)=N\Nc2nnc(C)n2N)c1 | > 100 | > 100 | > 100 | > 100 | > 100 | > 100 | > 100 | > 100 | > 100 |  |  |  |  |  |  |  |  |  |  |  |
